{"source": "paper PMC2810227", "about": "“3-O-Methylfunicone, a Selective Inhibitor of Mammalian Y-Family DNA Polymerases from an Australian Sea Salt Fungal Strain” (Marine Drugs, 2009)", "origin": "cited, not measured here", "key": {"pol α": {"test_system": "pol α", "set-up": "method as in PMID 467434", "conditions": "not competing with the other three deoxynucleoside triphosphates; cited from earlier work"}, "[1]": {"test_system": "family B pols, such as pols α, δ and ɛ", "set-up": "method as in PMID 467434", "conditions": "cited from earlier work"}}}
{"molecule": "C[C@@]1(CO)[C@H](O)CC[C@@]2(C)[C@H]1CC[C@H]1C[C@@H]3C[C@@]12CC[C@]3(O)CO", "note": "[aphidicolin]", "values": [{"measurement": "mode of inhibition of pol α with respect to individual deoxynucleoside triphosphates", "setting": "pol α", "result": "competing with dCTP"}, {"measurement": "mode of inhibition with the DNA template-primer", "setting": "[1]; activated DNA", "result": "uncompetitive"}, {"measurement": "mode of inhibition with respect to the dNTP substrate", "setting": "[1]", "result": "competitive"}]}
